Legend:
bedstraw = assay: Test B pre/postemergence bedstraw; assay type: in vivo, Galium aparine
Outline: (§1)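 Herbicidal effect was estimated by eye on a ten-point control scale after plants spent twelve to sixteen days in a greenhouse following soil or foliar treatment. Foliar sprays targeted plants at one to four leaves; all doses were formulated in a non-phytotoxic solvent with surfactant.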

blackgrass = assay: Test B pre/postemergence blackgrass; assay type: in vivo, Alopecurus myosuroides
Outline: as §1

surinam grass = assay: Test B pre/postemergence surinam grass; assay type: in vivo, Brachiaria decumbens
Outline: as §1

cocklebur = assay: Test B pre/postemergence cocklebur; assay type: in vivo, Xanthium strumarium
Outline: as §1

corn = assay: Test B pre/postemergence corn; assay type: in vivo, Zea mays
Outline: as §1

crabgrass = assay: Test B pre/postemergence crabgrass; assay type: in vivo, Digitaria sanguinalis
Outline: as §1

giant foxtail = assay: Test B pre/postemergence giant foxtail; assay type: in vivo, Setaria faberii
Outline: as §1

morningglory = assay: Test B pre/postemergence morningglory; assay type: in vivo, Ipomoea hederacea
Outline: as §1

pigweed = assay: Test B pre/postemergence pigweed; assay type: in vivo, Amaranthus retroflexus
Outline: as §1

rape = assay: Test B pre/postemergence rape; assay type: in vivo, Brassica napus
Outline: as §1

soybean = assay: Test B pre/postemergence soybean; assay type: in vivo, Glycine max
Outline: as §1

sugar beet = assay: Test B pre/postemergence sugar beet; assay type: in vivo, Beta vulgaris
Outline: as §1

velvetleaf = assay: Test B pre/postemergence velvetleaf; assay type: in vivo, Abutilon theophrasti
Outline: as §1

wheat = assay: Test B pre/postemergence wheat; assay type: in vivo, Triticum aestivum
Outline: as §1

wild oat = assay: Test B pre/postemergence wild oat; assay type: in vivo, Avena fatua
Outline: as §1

purple nutsedge = assay: Test B pre/postemergence purple nutsedge; assay type: in vivo, Cyperus rotundus
Outline: as §1

[1] = Preemergence, Rate 62 g/ha, scale of 0 to 10 where 0 is no effect and 10 is complete control
[2] = Preemergence, Rate 125 g/ha, scale of 0 to 10 where 0 is no effect and 10 is complete control
[3] = Preemergence, Rate 250 g/ha, scale 0 to 10 (0 no effect, 10 complete control)
[4] = Preemergence, Rate 500 g/ha, scale of 0 to 10 where 0 is no effect and 10 is complete control
[5] = Rate 500 g/ha, Postemergence, scale 0 to 10, 0 is no effect, 10 is complete control
[6] = Postemergence, Rate 62 g/ha, scale 0 to 10, 0 is no effect, 10 is complete control
[7] = Postemergence, Rate 125 g/ha, scale of 0 to 10 where 0 is no effect and 10 is complete control
[8] = Postemergence, Rate 250 g/ha, scale of 0 to 10, 0 is no effect, 10 is complete control

CC(C)N(C(=O)n1oc(=O)n(CCF)c1=O)c1ccc(F)cc1F [Compound 670]
Bedstraw plant response rating (bedstraw; [1]): 8
Plant response rating, Bedstraw (bedstraw; [2]): 8
Plant response rating, Bedstraw (bedstraw; [3]): 9
Plant response rating, Bedstraw (bedstraw; [4]): 9
Bedstraw plant response rating (bedstraw; [5]): 8
Plant response rating, Blackgrass (blackgrass; [6]): 2
Blackgrass plant response rating (blackgrass; [7]): 4
Blackgrass plant response rating (blackgrass; [8]): 5
Blackgrass plant response rating (blackgrass; [1]): 8
Plant response rating, Blackgrass (blackgrass; [2]): 9
Plant response rating, Blackgrass (blackgrass; [3]): 10
Plant response rating, Blackgrass (blackgrass; [4]): 10
Blackgrass plant response rating (blackgrass; [5]): 5
Plant response rating, B. signalgrass (surinam grass; [6]): 3
Plant response rating, B. signalgrass (surinam grass; [7]): 7
B. signalgrass plant response rating (surinam grass; [8]): 7
B. signalgrass plant response rating (surinam grass; [1]): 8
Plant response rating, B. signalgrass (surinam grass; [2]): 9
Plant response rating, B. signalgrass (surinam grass; [3]): 10
Plant response rating, B. signalgrass (surinam grass; [4]): 10
B. signalgrass plant response rating (surinam grass; [5]): 8
Plant response rating, Cocklebur (cocklebur; [6]): 2
Cocklebur plant response rating (cocklebur; [7]): 2
Cocklebur plant response rating (cocklebur; [8]): 2
Cocklebur plant response rating (cocklebur; [1]): 0
Plant response rating, Cocklebur (cocklebur; [2]): 0
Plant response rating, Cocklebur (cocklebur; [4]): 2
Cocklebur plant response rating (cocklebur; [5]): 3
Plant response rating, Corn (corn; [6]): 3
Corn plant response rating (corn; [7]): 4
Corn plant response rating (corn; [8]): 5
Corn plant response rating (corn; [1]): 2
Plant response rating, Corn (corn; [2]): 4
Plant response rating, Corn (corn; [3]): 8
Plant response rating, Corn (corn; [4]): 9
Corn plant response rating (corn; [5]): 6
Plant response rating, Crabgrass (crabgrass; [6]): 9
Crabgrass plant response rating (crabgrass; [7]): 8
Crabgrass plant response rating (crabgrass; [8]): 8
Crabgrass plant response rating (crabgrass; [1]): 10
Plant response rating, Crabgrass (crabgrass; [2]): 10
Plant response rating, Crabgrass (crabgrass; [3]): 10
Plant response rating, Crabgrass (crabgrass; [4]): 10
Crabgrass plant response rating (crabgrass; [5]): 8
Plant response rating, Giant foxtail (giant foxtail; [6]): 9
Giant foxtail plant response rating (giant foxtail; [7]): 9
Giant foxtail plant response rating (giant foxtail; [8]): 9
Giant foxtail plant response rating (giant foxtail; [1]): 10
Plant response rating, Giant foxtail (giant foxtail; [2]): 10
Plant response rating, Giant foxtail (giant foxtail; [3]): 10
Plant response rating, Giant foxtail (giant foxtail; [4]): 10
Giant foxtail plant response rating (giant foxtail; [5]): 9
Plant response rating, Morningglory (morningglory; [6]): 3
Morningglory plant response rating (morningglory; [7]): 3
Morningglory plant response rating (morningglory; [8]): 6
Morningglory plant response rating (morningglory; [1]): 2
Plant response rating, Morningglory (morningglory; [2]): 7
Plant response rating, Morningglory (morningglory; [3]): 8
Plant response rating, Morningglory (morningglory; [4]): 8
Morningglory plant response rating (morningglory; [5]): 4
Plant response rating, Redroot pigweed (pigweed; [6]): 7
Redroot pigweed plant response rating (pigweed; [7]): 7
Redroot pigweed plant response rating (pigweed; [1]): 9
Plant response rating, Redroot pigweed (pigweed; [2]): 10
Plant response rating, Redroot pigweed (pigweed; [3]): 10
Plant response rating, Redroot pigweed (pigweed; [4]): 10
Redroot pigweed plant response rating (pigweed; [5]): 9
Plant response rating, Rape (rape; [6]): 0
Rape plant response rating (rape; [7]): 2
Rape plant response rating (rape; [1]): 8
Plant response rating, Rape (rape; [2]): 9
Plant response rating, Rape (rape; [3]): 10
Plant response rating, Rape (rape; [4]): 10
Rape plant response rating (rape; [5]): 4
Plant response rating, Soybean (soybean; [6]): 3
Soybean plant response rating (soybean; [7]): 2
Soybean plant response rating (soybean; [1]): 0
Plant response rating, Soybean (soybean; [2]): 3
Plant response rating, Soybean (soybean; [3]): 8
Plant response rating, Soybean (soybean; [4]): 9
Soybean plant response rating (soybean; [5]): 5
Plant response rating, Sugarbeets (sugar beet; [6]): 0
Sugarbeets plant response rating (sugar beet; [7]): 2
Sugarbeets plant response rating (sugar beet; [1]): 8
Plant response rating, Sugarbeets (sugar beet; [2]): 9
Plant response rating, Sugarbeets (sugar beet; [3]): 9
Plant response rating, Sugarbeets (sugar beet; [4]): 9
Sugarbeets plant response rating (sugar beet; [5]): 2
Plant response rating, Velvetleaf (velvetleaf; [6]): 5
Velvetleaf plant response rating (velvetleaf; [7]): 5
Velvetleaf plant response rating (velvetleaf; [1]): 6
Plant response rating, Velvetleaf (velvetleaf; [2]): 8
Plant response rating, Velvetleaf (velvetleaf; [3]): 8
Plant response rating, Velvetleaf (velvetleaf; [4]): 8
Velvetleaf plant response rating (velvetleaf; [5]): 4
Plant response rating, Wheat (wheat; [6]): 0
Wheat plant response rating (wheat; [7]): 0
Wheat plant response rating (wheat; [1]): 7
Plant response rating, Wheat (wheat; [2]): 9
Plant response rating, Wheat (wheat; [3]): 9
Plant response rating, Wheat (wheat; [4]): 9
Wheat plant response rating (wheat; [5]): 4
Plant response rating, Wild oats (wild oat; [6]): 0
Wild oats plant response rating (wild oat; [7]): 0
Wild oats plant response rating (wild oat; [1]): 7
Plant response rating, Wild oats (wild oat; [2]): 9
Plant response rating, Wild oats (wild oat; [3]): 9
Plant response rating, Wild oats (wild oat; [4]): 9
Wild oats plant response rating (wild oat; [5]): 3
Plant response rating, Nutsedge (purple nutsedge; [6]): 0
Nutsedge plant response rating (purple nutsedge; [7]): 4
Plant response rating, Nutsedge (purple nutsedge; [2]): 5
Plant response rating, Nutsedge (purple nutsedge; [3]): 8
Plant response rating, Nutsedge (purple nutsedge; [4]): 10
Nutsedge plant response rating (purple nutsedge; [5]): 5

CC(C)N(C(=O)n1oc(=O)n(CCC(=O)N(C)C)c1=O)c1ccc(F)cc1F [Compound 687]
Bedstraw plant response rating (bedstraw; [1]): 0
Plant response rating, Bedstraw (bedstraw; [2]): 0
Plant response rating, Bedstraw (bedstraw; [4]): 0
Blackgrass plant response rating (blackgrass; [1]): 8
Plant response rating, Blackgrass (blackgrass; [2]): 9
Plant response rating, Blackgrass (blackgrass; [3]): 9
Plant response rating, Blackgrass (blackgrass; [4]): 10
B. signalgrass plant response rating (surinam grass; [1]): 6
Plant response rating, B. signalgrass (surinam grass; [2]): 9
Plant response rating, B. signalgrass (surinam grass; [3]): 10
Plant response rating, B. signalgrass (surinam grass; [4]): 10
Cocklebur plant response rating (cocklebur; [1]): 0
Plant response rating, Cocklebur (cocklebur; [2]): 0
Plant response rating, Cocklebur (cocklebur; [3]): 0
Plant response rating, Cocklebur (cocklebur; [4]): 0
Corn plant response rating (corn; [1]): 0
Plant response rating, Corn (corn; [2]): 0
Plant response rating, Corn (corn; [3]): 0
Crabgrass plant response rating (crabgrass; [1]): 4
Plant response rating, Crabgrass (crabgrass; [3]): 4
Giant foxtail plant response rating (giant foxtail; [1]): 6
Plant response rating, Giant foxtail (giant foxtail; [2]): 6
Morningglory plant response rating (morningglory; [1]): 2
Plant response rating, Morningglory (morningglory; [2]): 3
Redroot pigweed plant response rating (pigweed; [1]): 8
Plant response rating, Redroot pigweed (pigweed; [2]): 9
Rape plant response rating (rape; [1]): 0
Plant response rating, Rape (rape; [2]): 5
Soybean plant response rating (soybean; [1]): 0
Plant response rating, Soybean (soybean; [2]): 0
Sugarbeets plant response rating (sugar beet; [1]): 4
Plant response rating, Sugarbeets (sugar beet; [2]): 5
Velvetleaf plant response rating (velvetleaf; [1]): 2
Plant response rating, Velvetleaf (velvetleaf; [2]): 5
Wheat plant response rating (wheat; [1]): 0
Plant response rating, Wheat (wheat; [2]): 6
Wild oats plant response rating (wild oat; [1]): 7
Plant response rating, Wild oats (wild oat; [2]): 9
Plant response rating, Nutsedge (purple nutsedge; [2]): 0

— US6737383B1, “Herbicidal oxadiazolidines” (priority 1999, dated 2004)
